What follows are compounds tested against T1, ATM (Homo sapiens, UniProt Q13315) (assay: In vitro ATM inhibition assay (phosphorylation of GSTp53N66 on serine 15)).
T1 construct: ATM protein was immunoprecipitated from HeLa cell nuclear extract; endogenous in cells; host or cells: HeLa cell nuclear extract (immunoprecipitate)
T1 sequence (Q13315 whole entry): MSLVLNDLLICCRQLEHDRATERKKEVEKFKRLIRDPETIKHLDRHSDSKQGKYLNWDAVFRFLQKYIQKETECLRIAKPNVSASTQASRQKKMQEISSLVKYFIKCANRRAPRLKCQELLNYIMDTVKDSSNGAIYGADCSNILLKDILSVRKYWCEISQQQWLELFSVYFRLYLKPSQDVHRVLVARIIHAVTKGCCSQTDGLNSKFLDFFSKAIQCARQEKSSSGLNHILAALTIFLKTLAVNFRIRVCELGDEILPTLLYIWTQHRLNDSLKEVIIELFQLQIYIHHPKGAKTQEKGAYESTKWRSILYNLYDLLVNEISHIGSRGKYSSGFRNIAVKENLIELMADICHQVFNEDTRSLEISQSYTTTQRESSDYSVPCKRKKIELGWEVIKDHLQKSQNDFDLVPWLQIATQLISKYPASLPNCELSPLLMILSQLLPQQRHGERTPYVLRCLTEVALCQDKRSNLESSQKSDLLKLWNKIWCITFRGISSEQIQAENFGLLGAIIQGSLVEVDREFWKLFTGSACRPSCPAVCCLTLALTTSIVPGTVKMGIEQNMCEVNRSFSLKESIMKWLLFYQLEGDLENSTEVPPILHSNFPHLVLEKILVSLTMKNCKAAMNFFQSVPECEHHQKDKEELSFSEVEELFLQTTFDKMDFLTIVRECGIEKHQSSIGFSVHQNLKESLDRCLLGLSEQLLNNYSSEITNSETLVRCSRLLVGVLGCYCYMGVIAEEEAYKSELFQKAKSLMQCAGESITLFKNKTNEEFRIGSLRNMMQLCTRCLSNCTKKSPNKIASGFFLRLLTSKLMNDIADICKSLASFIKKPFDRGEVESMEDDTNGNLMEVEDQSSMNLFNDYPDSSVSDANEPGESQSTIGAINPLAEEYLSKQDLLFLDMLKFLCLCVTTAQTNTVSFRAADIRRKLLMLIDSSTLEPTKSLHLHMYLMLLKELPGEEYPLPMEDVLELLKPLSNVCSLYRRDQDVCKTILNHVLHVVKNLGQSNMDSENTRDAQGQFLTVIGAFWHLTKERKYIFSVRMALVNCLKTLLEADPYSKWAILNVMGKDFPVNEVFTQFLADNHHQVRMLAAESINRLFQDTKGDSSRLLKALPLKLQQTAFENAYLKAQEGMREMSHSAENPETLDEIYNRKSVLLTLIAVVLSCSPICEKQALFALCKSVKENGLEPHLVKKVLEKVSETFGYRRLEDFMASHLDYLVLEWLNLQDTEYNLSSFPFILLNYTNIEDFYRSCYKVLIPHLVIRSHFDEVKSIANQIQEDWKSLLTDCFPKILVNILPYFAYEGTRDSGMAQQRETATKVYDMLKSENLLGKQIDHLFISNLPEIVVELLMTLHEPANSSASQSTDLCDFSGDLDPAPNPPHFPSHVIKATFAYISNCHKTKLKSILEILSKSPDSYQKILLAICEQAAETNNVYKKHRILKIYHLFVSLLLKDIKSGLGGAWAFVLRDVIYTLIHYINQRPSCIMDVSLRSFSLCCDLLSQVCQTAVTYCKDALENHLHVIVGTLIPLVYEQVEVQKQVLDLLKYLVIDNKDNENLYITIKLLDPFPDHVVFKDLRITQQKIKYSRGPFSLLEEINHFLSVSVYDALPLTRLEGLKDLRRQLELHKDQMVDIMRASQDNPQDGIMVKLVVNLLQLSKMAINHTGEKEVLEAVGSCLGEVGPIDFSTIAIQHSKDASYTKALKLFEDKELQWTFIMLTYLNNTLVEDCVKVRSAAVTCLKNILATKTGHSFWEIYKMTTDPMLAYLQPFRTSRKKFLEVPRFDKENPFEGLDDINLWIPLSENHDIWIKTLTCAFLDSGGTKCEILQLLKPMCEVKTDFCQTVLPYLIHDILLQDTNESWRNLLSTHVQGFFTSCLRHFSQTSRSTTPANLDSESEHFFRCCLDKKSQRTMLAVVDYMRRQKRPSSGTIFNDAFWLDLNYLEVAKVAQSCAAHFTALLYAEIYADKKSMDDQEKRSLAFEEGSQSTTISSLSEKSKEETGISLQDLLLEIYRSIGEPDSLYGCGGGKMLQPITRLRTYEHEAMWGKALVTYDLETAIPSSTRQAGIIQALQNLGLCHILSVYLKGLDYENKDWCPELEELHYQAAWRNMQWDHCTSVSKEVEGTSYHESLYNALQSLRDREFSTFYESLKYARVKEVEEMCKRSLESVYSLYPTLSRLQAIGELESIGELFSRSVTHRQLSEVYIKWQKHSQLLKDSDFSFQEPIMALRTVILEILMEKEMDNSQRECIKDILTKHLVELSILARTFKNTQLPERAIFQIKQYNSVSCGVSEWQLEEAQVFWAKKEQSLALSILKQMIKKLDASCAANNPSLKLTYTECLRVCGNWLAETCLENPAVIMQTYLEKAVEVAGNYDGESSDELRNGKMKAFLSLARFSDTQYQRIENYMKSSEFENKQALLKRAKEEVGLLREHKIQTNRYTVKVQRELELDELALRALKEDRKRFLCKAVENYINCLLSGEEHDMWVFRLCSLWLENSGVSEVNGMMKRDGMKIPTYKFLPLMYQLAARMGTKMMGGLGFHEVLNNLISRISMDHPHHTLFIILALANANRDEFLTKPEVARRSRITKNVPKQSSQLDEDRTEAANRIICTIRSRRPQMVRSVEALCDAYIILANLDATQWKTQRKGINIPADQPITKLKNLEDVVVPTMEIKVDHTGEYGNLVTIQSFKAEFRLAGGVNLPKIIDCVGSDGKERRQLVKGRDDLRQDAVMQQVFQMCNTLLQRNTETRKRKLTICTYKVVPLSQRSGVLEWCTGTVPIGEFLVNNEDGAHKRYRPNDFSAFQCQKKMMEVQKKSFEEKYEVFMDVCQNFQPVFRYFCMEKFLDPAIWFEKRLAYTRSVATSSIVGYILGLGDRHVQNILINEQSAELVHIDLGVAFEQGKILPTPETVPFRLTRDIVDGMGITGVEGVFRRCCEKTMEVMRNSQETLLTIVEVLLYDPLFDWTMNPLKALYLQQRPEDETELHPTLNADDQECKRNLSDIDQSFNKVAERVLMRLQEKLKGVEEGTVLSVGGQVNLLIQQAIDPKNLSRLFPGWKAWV
Type: biochemical
Method: In vitro ATM inhibition Assays
In order to assess the inhibitory action of the compounds against ATM in vitro, the following assay was used to determine IC50 values.
ATM protein was immunoprecipitated from HeLa cell nuclear extract using rabbit polyclonal anti-sera raised to the C-terminal ˜500 amino-acid residues of the human ATM protein. The immunoprecipitation was performed according to the methodology described by Banin, S. et al. (1998). 10 μl of immunoprecipitated ATM in Buffer C (50 mM Hepes, pH 7.4, 6 mM MgCl2, 150 mM NaCl, 0.1 mM sodium orthovanadate, 4 mM MnCl2, 0.1 mM dithiothreitol, 10% glycerol) was added to 32.5 μl of buffer C containing 1 μg of the ATM substrate GSTp53N66 in a V-bottomed 96 well polypropylene plate. The GSTp53N66 substrate is the amino terminal 66 amino acid residues of human wild type p53 fused to glutathione S-transferase. ATM phosphorylates p53 on the residue serine 15 (Banin, S. et al. (1998)). Varying concentrations of inhibitor were then added. […] After 10 minutes of incubation at 37° C., the reactions were initiated by the addition of 5 μl of 500 μM Na-ATP. After 1 hour with shaking at 37° C., 150 μl of phosphate buffered saline (PBS) was added to the reaction and the plate centrifuged at 1500 rpm for 10 minutes. 5 μl of the reaction was then transferred to a 96 well opaque white plate containing 45 μl of PBS to allow the GSTp53N66 substrate to bind to the plate wells. The plate was covered and incubated at room temperature for 1 hour with shaking before discarding the contents. The plate wells were washed twice by the addition of PBS prior to the addition of 3% (w/v) bovine serum albumin (BSA) in PBS. The plate was incubated at room temperature for 1 hour with shaking before discarding the contents and washing twice with PBS. To the wells, 50 μl of a 1:10,000 dilution of primary phosphoserine-15 antibody (Cell Signaling Technology, #9284L) in 3% BSA/PBS was added to detect the phosphorylation event on the serine 15 residue of p53 elicited by the ATM kinase. After 1 hour of incubation at room temperature with shaking, the wells were washed four times with PBS prior to the addition of an anti-rabbit HRP conjugated secondary antibody (Pierce, 31462) with shaking for 1 hour at room temperature. The wells were then washed four times with PBS before the addition of chemiluminescence reagent (NEN Renaissance, NEL105). The plate was then shaken briefly, covered with a transparent plate seal and transferred to a TopCount NXT for chemiluminescent counting. Counts per second, following a one second counting time, were recorded for each reaction.
The enzyme activity for each compound is then calculated using the following equation: […]
With `O=C(c1ccc2c(c1)Sc1cccc(-c3cc(=O)cc(N4CCOCC4)o3)c1S2)N1CCCCCC1` [Compound 161] the IC50 was under 200 nM. `COc1ccc(CNCCC(=O)Nc2ccc3c(c2)Cc2cccc(-c4cc(=O)cc(N5CCOCC5)o4)c2S3)cc1` [Compound 81] was tested, and the IC50 was under 200 nM. In the case of `O=C(CCNCC1CCCO1)Nc1ccc2c(c1)Cc1cccc(-c3cc(=O)cc(N4CCOCC4)o3)c1S2` (stereo not shown) [Compound 86], the IC50 is reported as under 200 nM. `CC(C)CNC(=O)c1ccc2c(c1)Sc1cccc(-c3cc(=O)cc(N4CCOCC4)o3)c1S2` [Compound 145] was tested, and the IC50 was under 200 nM. In the case of `O=C(NCCCN1CCOCC1)c1ccc2c(c1)Sc1cccc(-c3cc(=O)cc(N4CCOCC4)o3)c1S2` [Compound 178], the IC50 is reported as under 200 nM. `CN1CCCN(CCC(=O)Nc2ccc3c(c2)Cc2cccc(-c4cc(=O)cc(N5CCOCC5)o4)c2S3)CC1` [Compound 77] showed an IC50 of under 200 nM. `O=C(CN1CCCCC1)Nc1ccc2c(c1)Cc1cccc(-c3cc(=O)cc(N4CCOCC4)o3)c1S2` [Compound 51] gave an IC50 of under 200 nM. In the case of `O=C(NCc1cccnc1)c1ccc2c(c1)Sc1cccc(-c3cc(=O)cc(N4CCOCC4)o3)c1S2` [Compound 171], the IC50 is reported as under 200 nM. For `COC(=O)C(=O)Nc1ccc(-c2cc(=O)cc(N3CCOCC3)o2)c2c1Cc1ccccc1S2` [Compound 116], the IC50 was under 200 nM. For `N#Cc1cccc(NC(=O)Nc2ccc(-c3cc(=O)cc(N4CCOCC4)o3)c3c2Cc2ccccc2S3)c1` [Compound 117], the IC50 was under 200 nM. Work on `CC(=O)OCC(=O)Nc1ccc2c(c1)Cc1cccc(-c3cc(=O)cc(N4CCOCC4)o3)c1S2` [Compound 40] yielded an IC50 of under 200 nM. `Cc1nnsc1C(=O)Nc1ccc(-c2cc(=O)cc(N3CCOCC3)o2)c2c1Cc1ccccc1S2` [Compound 111] showed an IC50 of under 200 nM. `Nc1ccc2c(c1)Cc1cccc(-c3cc(=O)cc(N4CCOCC4)o3)c1S2` [Compound 20, 2-(7-Amino-9H-thioxanthen-4-yl)-6-morpholin-4-yl-pyran-4-one] showed an IC50 of under 200 nM. `O=C(CN1CCCCCC1)Nc1ccc2c(c1)Cc1cccc(-c3cc(=O)cc(N4CCOCC4)o3)c1S2` [Compound 61] gave an IC50 of under 200 nM. In the case of `COCCN(CCOC)CCC(=O)Nc1ccc2c(c1)Cc1cccc(-c3cc(=O)cc(N4CCOCC4)o3)c1S2` [Compound 73], the IC50 is reported as under 200 nM. For `O=C(NCC1CCCO1)c1ccc2c(c1)Sc1cccc(-c3cc(=O)cc(N4CCOCC4)o3)c1S2` (stereo not shown) [Compound 149], the IC50 was under 200 nM. With `O=C(Nc1ccc(-c2cc(=O)cc(N3CCOCC3)o2)c2c1Cc1ccccc1S2)c1ccco1` [Compound 107] the IC50 was under 200 nM. `COCC(=O)CC(=O)Nc1ccc(-c2cc(=O)cc(N3CCOCC3)o2)c2c1Cc1ccccc1S2` [Compound 124] gave an IC50 of under 200 nM. Compound `O=C(Nc1ccc2c(c1)Cc1cccc(-c3cc(=O)cc(N4CCOCC4)o3)c1S2)c1ccno1` [Compound 47] has an IC50 of under 200 nM. Compound `O=C(NCCN1CCCCC1)c1ccc2c(c1)Sc1cccc(-c3cc(=O)cc(N4CCOCC4)o3)c1S2` [Compound 166] has an IC50 of under 200 nM. Compound `CC(=O)Oc1cccc(C(=O)Nc2ccc(-c3cc(=O)cc(N4CCOCC4)o3)c3c2Cc2ccccc2S3)c1C` [Compound 123] has an IC50 of under 200 nM. For `O=c1cc(-c2ccc(NS(=O)(=O)Cc3ccccc3)c3c2Sc2ccccc2C3)oc(N2CCOCC2)c1` [Compound 130], the IC50 was under 200 nM. For `O=C(CCN1CCNCC1)Nc1ccc2c(c1)Cc1cccc(-c3cc(=O)cc(N4CCOCC4)o3)c1S2` [Compound 70], the IC50 was under 200 nM. In the case of `O=C(Nc1ccc2c(c1)Cc1cccc(-c3cc(=O)cc(N4CCOCC4)o3)c1S2)c1ccncc1` [Compound 28], the IC50 is reported as under 200 nM. In the case of `O=C(Nc1ccc2c(c1)Cc1cccc(-c3cc(=O)cc(N4CCOCC4)o3)c1S2)c1cc(F)cc2c1OCOC2` [Compound 44], the IC50 is reported as under 200 nM. `O=C(CCNCCCN1CCOCC1)Nc1ccc2c(c1)Cc1cccc(-c3cc(=O)cc(N4CCOCC4)o3)c1S2` [Compound 80] was tested, and the IC50 was under 200 nM. Work on `O=C(CNCCCN1CCOCC1)Nc1ccc2c(c1)Cc1cccc(-c3cc(=O)cc(N4CCOCC4)o3)c1S2` [Compound 62] yielded an IC50 of under 200 nM. `CC(=O)Oc1ccccc1C(=O)Nc1ccc(-c2cc(=O)cc(N3CCOCC3)o2)c2c1Cc1ccccc1S2` [Compound 109] showed an IC50 of under 200 nM.
